Experimental data reported in patent US20200281937A1, “USL-311 FOR USE IN THE TREATMENT OF CANCER” (Proximagen, LLC, priority 2017, published 2020).

Tests used:
Type in all cases: in vivo
B16F10small (melanoma) = test: Syngeneic subcutaneous tumour growth inhibition, B16F10small; conditions: B16F10small s.c. tumour in mice, 50 mg/kg p.o. 5 days out of 7, vs vehicle group
Procedure: (§1) Nine syngeneic cell lines from […] different cancer types (EMT-6 (breast cancer), MBT2 (bladder cancer), CT26 (colorectal cancer), B16F10small, B16BL6 (both melanoma), A20 (lymphoma), LL/2 (lung cancer), Renca (kidney cancer), H22 (liver cancer)) were cultured and when in exponential growth were inoculated in mice subcutaneously with tumour cells in 0.1 mL of PBS for tumour development. After the mean tumour size reached approximately 80-120 mm^3 the mice were treated with 6-{4-[1-(Propan-2-yl)piperidin-4-yl]-1,4-diazepan-1-yl}-N-(pyridin-4-yl)pyridine-2-carboxamide (50 mg/kg p.o. 5 days out of 7). Tumour volumes were measured twice weekly at least in two dimensions using a caliper, and the volume expressed in mm^3 using the formula: V=0.5 a×b^2 where a and b are the long and short diameters of the tumour, respectively. Tumour growth was measured and inhibition of tumour growth reported in comparison to a vehicle treated group. All groups contained 8 mice. If the tumours in a group reached an average volume of 2000 mm^3, the experiment was terminated.

H22 (liver cancer) = test: Syngeneic subcutaneous tumour growth inhibition, H22; conditions: H22 s.c. tumour in mice, 50 mg/kg p.o. 5 days out of 7, vs vehicle group
Procedure: as §1

CT26 (colorectal cancer) = test: Syngeneic subcutaneous tumour growth inhibition, CT26; conditions: CT26 s.c. tumour in mice, 50 mg/kg p.o. 5 days out of 7, vs vehicle group
Procedure: as §1

EMT-6 (breast cancer) = test: Syngeneic subcutaneous tumour growth inhibition, EMT-6; conditions: EMT6 s.c. tumour in mice, 50 mg/kg p.o. 5 days out of 7, vs vehicle group
Procedure: as §1

Renca (kidney cancer) = test: Syngeneic subcutaneous tumour growth inhibition, Renca; conditions: Renca s.c. tumour in mice, 50 mg/kg p.o. 5 days out of 7, vs vehicle group
Procedure: as §1

MBT2 (bladder cancer) = test: Syngeneic subcutaneous tumour growth inhibition, MBT2; conditions: MBT2 s.c. tumour in mice, 50 mg/kg p.o. 5 days out of 7, vs vehicle group
Procedure: as §1

B16BL6 (melanoma) = test: Syngeneic subcutaneous tumour growth inhibition, B16BL6; conditions: B16BL6 s.c. tumour in mice, 50 mg/kg p.o. 5 days out of 7, vs vehicle group
Procedure: as §1

LL/2 (lung cancer) = test: Syngeneic subcutaneous tumour growth inhibition, LL/2; conditions: LL/2 s.c. tumour in mice, 50 mg/kg p.o. 5 days out of 7, vs vehicle group
Procedure: as §1

A20 (lymphoma) = test: Syngeneic subcutaneous tumour growth inhibition, A20; conditions: A20 s.c. tumour in mice, 50 mg/kg p.o. 5 days out of 7, vs vehicle group
Procedure: as §1

## CC(C)N1CCC(N2CCCN(c3cccc(C(=O)Nc4ccncc4)n3)CC2)CC1 [6-{4-[1-(Propan-2-yl)piperidin-4-yl]-1,4-diazepan-1-yl}-N-(pyridin-4-yl)pyridine-2-carboxamide]
B16F10small (melanoma)
  % inhibition of tumour growth relative to control: 0%
H22 (liver cancer)
  % inhibition of tumour growth relative to control: 20.1%
CT26 (colorectal cancer)
  % inhibition of tumour growth relative to control: 32.1%
EMT-6 (breast cancer)
  % inhibition of tumour growth relative to control: 79.8%
Renca (kidney cancer)
  % inhibition of tumour growth relative to control: 0%
MBT2 (bladder cancer)
  % inhibition of tumour growth relative to control: 29.3%
B16BL6 (melanoma)
  % inhibition of tumour growth relative to control: 0%
LL/2 (lung cancer)
  % inhibition of tumour growth relative to control: 7.8%
A20 (lymphoma)
  % inhibition of tumour growth relative to control: 11.6%
